Key:
[1] = system: marine and terrestrial (human pathogenic) fungi; design: method as in Strongman et al., 1987; details: ref Strongman et al., 1987; cited from earlier work
[2] = target: T1, OsUGT79 H122A/L123A/Q202A (Oryza sativa subsp. japonica, UniProt Q7XT97, H122A/L123A/Q202A); experiment: biochemical; assay type: biochemical
T1 sequence (Q7XT97 1-466 H122A/L123A/Q202A): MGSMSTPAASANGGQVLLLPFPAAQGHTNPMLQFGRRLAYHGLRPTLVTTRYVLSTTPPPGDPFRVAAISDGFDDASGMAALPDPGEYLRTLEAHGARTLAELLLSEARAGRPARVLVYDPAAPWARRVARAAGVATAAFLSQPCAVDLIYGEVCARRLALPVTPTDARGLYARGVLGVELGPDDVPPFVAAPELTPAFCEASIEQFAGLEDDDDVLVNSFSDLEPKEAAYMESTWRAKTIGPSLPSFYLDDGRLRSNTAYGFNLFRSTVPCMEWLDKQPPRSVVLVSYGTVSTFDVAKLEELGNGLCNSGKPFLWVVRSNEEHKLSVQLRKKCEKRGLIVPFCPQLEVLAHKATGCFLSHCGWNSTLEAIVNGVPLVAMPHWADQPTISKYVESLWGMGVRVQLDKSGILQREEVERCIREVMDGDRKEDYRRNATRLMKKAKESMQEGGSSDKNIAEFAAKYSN

[3] = system: roots of Brachypodium distachyon seedlings; experiment: Extracts from B. distachyon roots exposed to mycotoxin, LC-MS/MS; assay type: in vivo; details: 24 h; for D3G synthesis in the presence of CUL: 50 mg l^−1 DON, 10 mg l^−1 CUL
Description: (§1) Seedlings of Apogee and B. distachyon with roots 1–2 cm long were incubated in full-strength MS without sucrose and containing 50 mg l^−1 DON and/or either 50 mg l^−1 CUL (Apogee) or 10 mg l^−1 CUL (B. distachyon). The seedlings were placed into sterile 2 ml tubes containing 500 µl medium such that only the roots were submerged. After 24 h incubation under the same conditions as specified above for the elongation assays, the roots were cut from the seedlings, washed with 10% ethanol, briefly dried with tissue paper, and weighed. The roots were then ground in the Retsch Ball Mill MM 400 for 1 min at 30× s^−1 using two 5 mm steel balls, after which 500 µl methanol was added and the roots were extracted for 2 h at room temperature. The concentrations of DON, D3G, CUL, and CUL-glucosides were determined by LC-MS/MS.
DON, D3G, CUL, and CUL-glucosides were measured on a 6500+ QTrap MS/MS instrument (Sciex) coupled to an Agilent 1290 UHPLC system. A Kinetex C18 column (150×2.1 mm, 2.6 µm particle size; Phenomenex, Torrance, USA) was used for separation at 30 °C. Mobile phases consisted of mixtures of methanol and water (A, 10% MeOH; B, 97% MeOH) and both contained 5 mM ammonium acetate. A flow rate of 250 µl min^–1 and an injection volume of 1 µl were chosen. The gradient started with 0% B for 1.0 min and then increased linearly to 100% B at 8.5 min. The column was rinsed with 100% B for 3 min, before equilibration with the start conditions for another 3 min until the end of the run at 14.5 min. The switching valve of the mass spectrometer directed the eluent into the ion source between 3.0 min and 11.0 min. […] DON and D3G were detected in negative ion mode first, and after 4.5 min the polarity was changed to positive electrospray mode to detect CUL and CUL-glucosides. […] D3G was determined with the [M+CH3COO]^− ion as the precursor (DP −80 V) with the following SRM settings: m/z 517.2 > 427.1 (CE −30 eV) and m/z 517.2 > 59.1 (CE −85 eV). […]

wheat coleoptile tissue = system: wheat coleoptile tissue; design: method as in Wang and Miller, 1988; details: ref Wang and Miller, 1988, cited from earlier work
HvUGT13248 = target: T2, HvUGT13248 (Hordeum vulgare subsp. vulgare, UniProt M0Y4P1)
T2 sequence (M0Y4P1 1-475): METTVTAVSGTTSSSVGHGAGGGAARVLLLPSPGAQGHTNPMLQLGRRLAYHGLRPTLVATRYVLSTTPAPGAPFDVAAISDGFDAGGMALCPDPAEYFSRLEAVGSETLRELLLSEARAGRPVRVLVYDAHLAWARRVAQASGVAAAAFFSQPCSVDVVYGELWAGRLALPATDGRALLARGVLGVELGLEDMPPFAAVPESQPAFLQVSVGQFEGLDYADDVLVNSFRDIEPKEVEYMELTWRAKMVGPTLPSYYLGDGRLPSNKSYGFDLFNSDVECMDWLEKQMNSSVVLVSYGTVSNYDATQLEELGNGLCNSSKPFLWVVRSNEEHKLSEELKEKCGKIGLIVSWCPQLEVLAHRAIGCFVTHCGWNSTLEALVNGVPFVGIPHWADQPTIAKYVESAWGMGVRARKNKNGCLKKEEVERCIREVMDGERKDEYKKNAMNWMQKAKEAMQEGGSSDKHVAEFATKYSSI

[4] = system: roots of wheat cultivar Apogee seedlings; experiment: Extracts from wheat roots exposed to mycotoxin, LC-MS/MS; assay type: in vivo, Triticum aestivum; details: 24 h
Description: as §1
DON, D3G, CUL, and CUL-glucosides were measured on a 6500+ QTrap MS/MS instrument (Sciex) coupled to an Agilent 1290 UHPLC system. A Kinetex C18 column (150×2.1 mm, 2.6 µm particle size; Phenomenex, Torrance, USA) was used for separation at 30 °C. […] DON and D3G were detected in negative ion mode first, and after 4.5 min the polarity was changed to positive electrospray mode to detect CUL and CUL-glucosides. […] D3G was determined with the [M+CH3COO]^− ion as the precursor (DP −80 V) with the following SRM settings: m/z 517.2 > 427.1 (CE −30 eV) and m/z 517.2 > 59.1 (CE −85 eV). […]

Compound: CC1(C)CCC[C@]2(C)[C@@H]3[C@H]1[C@@H](O)[C@@]2(C)C[C@H]3O [CUL, culmorin]
- Anti-fungal activity [1]: Weak anti-fungal activity
- K iu of CUL (uncompetitive inhibition, DON as variable substrate) [2]: 217 µM
- Ki [2]: 65 µM
- inhibition at 10 µg/mL ([3]; Brachypodium distachyon, OE-10R14 roots, 50 mg l^−1 DON with 10 mg l^−1 CUL, read-out: Reduction of D3G synthesis in the presence of CUL): ~58.6%
- D3G synthesis in the presence of CUL ([3]; TILLING line 6829-3 (wild-type BdUGT5g03300 allele)): suppressed
- D3G synthesis in the presence of CUL ([3]; TILLING mutant 6829-7 (BdUGT5g03300 W345*)): not further reduced
- Phytotoxicity on wheat by itself (wheat coleoptile tissue; 10 µM CUL (∼3 mg l^−1)): no phytotoxicity
- Phytotoxicity on wheat coleoptile tissue (wheat coleoptile tissue; 1000 µM CUL): phytotoxic effect
- Specific activity (glucoside formation) (HvUGT13248): 6.94 ± 0.52 nmol/min/mg
- Effect of CUL on DON uptake by the roots ([4]; 50 mg l^−1 DON with 50 mg l^−1 CUL): did not inhibit DON uptake
- Reduction in the D3G concentration in the roots caused by CUL ([4]; 50 mg l^−1 DON with 50 mg l^−1 CUL vs DON alone): ~6 fold

Source: publication PMC13415951 (Journal of Experimental Botany, 2026)
